Assay results taken from patent publication US12421229B2, “Hydropyrido[1,2-α]pyrazine compounds for the treatment of autoimmune disease” (Hoffmann-La Roche Inc., priority 2019, dated 2025).

Molecular target: T1, human TLR8 (Homo sapiens, UniProt Q9NR97)
T1 construct: host or cells: HEK293 (HEK-Blue hTLR8)
T1 sequence (Q9NR97 27-1041): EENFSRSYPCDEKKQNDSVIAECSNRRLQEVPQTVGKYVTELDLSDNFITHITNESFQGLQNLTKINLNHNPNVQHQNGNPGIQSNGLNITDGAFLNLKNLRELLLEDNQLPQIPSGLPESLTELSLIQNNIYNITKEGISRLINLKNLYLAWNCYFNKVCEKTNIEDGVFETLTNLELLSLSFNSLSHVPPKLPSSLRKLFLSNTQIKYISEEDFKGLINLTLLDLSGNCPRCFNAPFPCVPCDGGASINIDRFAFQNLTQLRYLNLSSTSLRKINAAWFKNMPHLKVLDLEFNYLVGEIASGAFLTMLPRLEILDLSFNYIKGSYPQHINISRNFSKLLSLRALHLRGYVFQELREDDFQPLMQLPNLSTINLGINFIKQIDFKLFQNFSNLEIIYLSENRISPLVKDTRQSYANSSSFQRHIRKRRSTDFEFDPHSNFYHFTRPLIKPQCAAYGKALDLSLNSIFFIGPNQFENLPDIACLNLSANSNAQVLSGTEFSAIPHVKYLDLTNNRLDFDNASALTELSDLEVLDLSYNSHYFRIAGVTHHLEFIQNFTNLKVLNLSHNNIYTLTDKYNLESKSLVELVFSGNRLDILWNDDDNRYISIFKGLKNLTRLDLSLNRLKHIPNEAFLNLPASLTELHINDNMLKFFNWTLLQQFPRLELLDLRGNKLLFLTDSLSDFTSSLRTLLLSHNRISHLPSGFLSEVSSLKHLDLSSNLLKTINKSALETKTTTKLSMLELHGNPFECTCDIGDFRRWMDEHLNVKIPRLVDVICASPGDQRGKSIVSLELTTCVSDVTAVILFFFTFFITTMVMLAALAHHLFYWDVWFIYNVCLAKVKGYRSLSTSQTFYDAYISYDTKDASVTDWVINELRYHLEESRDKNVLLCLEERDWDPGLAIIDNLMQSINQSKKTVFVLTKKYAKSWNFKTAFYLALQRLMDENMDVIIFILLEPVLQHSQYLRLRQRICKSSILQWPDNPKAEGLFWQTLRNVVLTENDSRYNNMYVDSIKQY
Experiment: HEK293-Blue-hTLR-8 cells assay
Assay type: cell-based
Settings: HEK293-Blue-hTLR8 cells, R848 stimulation, 20 hrs, SEAP reporter; read-out: HEK/hTLR8 IC50
Source text: A stable HEK293-Blue-hTLR-8 cell line was purchased from InvivoGen (Cat. #: hkb-htlr8, San Diego, California, USA). These cells were originally designed for studying the stimulation of human TLR8 by monitoring the activation of NF-κB. A SEAP (secreted embryonic alkaline phosphatase) reporter gene was placed under the control of the IFN-β minimal promoter fused to five NF-κB and AP-1-binding sites. The SEAP was induced by activating NF-κB and AP-1 via stimulating HEK-Blue hTLR8 cells with TLR8 ligands. Therefore the reporter expression was declined by TLR8 antagonist under the stimulation of a ligand, such as R848, for incubation of 20 hrs. The cell culture supernatant SEAP reporter activity was determined using QUANTI-Blue™ kit (Cat. #: rep-qb1, Invivogen, San Diego, Ca, USA) at a wavelength of 640 nm, a detection medium that turns purple or blue in the presence of alkaline phosphatase.
HEK293-Blue-hTLR8 cells were incubated at a density of 250,000˜450,000 cells/mL in a volume of 170 μL in a 96-well plate in Dulbecco's Modified Eagle's medium (DMEM) containing 4.5 g/L glucose, 50 U/mL penicillin, […], […], 2 mM L-glutamine, 10% (v/v) heat-inactivated fetal bovine serum with addition of 20 μL test compound in a serial dilution in the presence of final DMSO at 1% and 10 μL of 60 uM R848 in above DMEM, perform incubation under 37° C. in a CO2 incubator for 20 hrs. Then 20 μL of the supernatant from each well was incubated with 180 μL Quanti-blue substrate solution at 37° C. for 2 hrs and the absorbance was read at 620˜655 nm using a spectrophotometer. The signaling pathway that TLR8 activation leads to downstream NF-κB activation has been widely accepted, and therefore similar reporter assay was modified for evaluating TLR8 antagonist.

`CO[C@@H]1CN(c2ccc([C@@H]3CCN4[C@@H](C3)CN(c3ccc(C#N)c5ncccc35)C[C@H]4C)cn2)C[C@H]1N` [Example 14, 5-[(4R,8R,9aS)-8-[6-[(3R,4R)-3-amino-4-methoxy-pyrrolidin-1-yl]-3-pyridyl]-4-methyl-1,3,4,6,7,8,9,9a-octahydropyrido[1,2-a]pyrazin-2-yl]quinoline-8-carbonitrile] and `CO[C@H]1CN(c2ccc([C@@H]3CCN4[C@@H](C3)CN(c3ccc(C#N)c5ncccc35)C[C@H]4C)cn2)C[C@H]1N` [Example 12, 5-[(4R,8R,9aS)-8-[6-[(3R,4S)-3-amino-4-methoxy-pyrrolidin-1-yl]-3-pyridyl]-4-methyl-1,3,4,6,7,8,9,9a-octahydropyrido[1,2-a]pyrazin-2-yl]quinoline-8-carbonitrile] are within 1.5-fold of each other in IC50: 48 nM for the first, 45 nM for the second.

First: [2H]c1ccc2c(N3C[C@@H]4C[C@H](N5CCN(c6ccncc6)CC5)CCN4[C@H](C)C3)ccc(C#N)c2n1 [Example 37, 5-[(4R,8R,9aS)-4-methyl-8-[4-(4-pyridyl)piperazin-1-yl]-1,3,4,6,7,8,9,9a-octahydropyrido[1,2-a]pyrazin-2-yl]-2-deuterio-quinoline-8-carbonitrile]
Second: [2H]c1ccc2c(N3C[C@@H]4C[C@@H](N5CC(c6ccc(N7C[C@@H](N)[C@H](OC)C7)cc6)C5)CCN4[C@H](C)C3)ccc(C#N)c2n1 [Example 36]
The IC50 of the first is 6.4-fold higher: 116 nM for the first, 18 nM for the second.

First: C[C@@H]1CN(c2ccc(C#N)c3ncccc23)C[C@H]2C[C@H](c3ccc(N4CCNCC4)nc3)CCN21 [Example 15, 5-[(4R,8R,9aR)-4-methyl-8-(6-piperazin-1-yl-3-pyridyl)-1,3,4,6,7,8,9,9a-octahydropyrido[1,2-a]pyrazin-2-yl]quinoline-8-carbonitrile]
Second: C[C@@H]1CN(c2ccc(C#N)c3ncccc23)C[C@@H]2C[C@H](c3ccc(N4CCNCC4)nc3)CCN21 (stereo in doubt) [Example 2, 5-[(4R,8R)-4-methyl-8-(6-piperazin-1-yl-3-pyridyl)-1,3,4,6,7,8,9,9a-octahydropyrido[1,2-a]pyrazin-2-yl]quinoline-8-carbonitrile]
The IC50 of the first is 4.2-fold higher: 80 nM for the first, 19 nM for the second. The second is the more potent here.

First: C[C@@H]1CN(c2ccc(C#N)c3ncccc23)C[C@@H]2C[C@@H](Oc3cncc(N4CCNCC4)c3)CCN21 [Example 29, 5-[(4R,8S,9aS)-4-methyl-8-[(5-piperazin-1-yl-3-pyridyl)oxy]-1,3,4,6,7,8,9,9a-octahydropyrido[1,2-a]pyrazin-2-yl]quinoline-8-carbonitrile]
Second: C[C@@H]1CN(c2ccc(C#N)c3ncccc23)C[C@@H]2C[C@@H](Oc3ccc(N4CCNCC4)cn3)CCN21 [Example 11, 5-[(4R,8S,9aS)-4-methyl-8-[(5-piperazin-1-yl-2-pyridyl)oxy]-1,3,4,6,7,8,9,9a-octahydropyrido[1,2-a]pyrazin-2-yl]quinoline-8-carbonitrile]
The IC50 of the first is 3-fold lower: 5 nM for the first, 15 nM for the second.

`C[C@@H]1CN(c2ccc(C#N)c3ncccc23)C[C@@H]2C[C@H](c3ccc([C@@H]4CNCCO4)cc3)CCN21` [Example 27, 5-[(4R,8R,9aS)-4-methyl-8-[4-[(2R)-morpholin-2-yl]phenyl]-1,3,4,6,7,8,9,9a-octahydropyrido[1,2-a]pyrazin-2-yl]quinoline-8-carbonitrile] and `C[C@@H]1CN(c2ccc(C#N)c3ncccc23)C[C@@H]2C[C@H](c3ccc(N4CCNCC4)nc3)CCN21` [Example 4, 5-[(4R,8R,9aS)-4-methyl-8-(6-piperazin-1-yl-3-pyridyl)-1,3,4,6,7,8,9,9a-octahydropyrido[1,2-a]pyrazin-2-yl]quinoline-8-carbonitrile] are the same in IC50: 18 nM for the first, 18 nM for the second.

Compared with `C[C@@H]1CN(c2ccc(C#N)c3ncccc23)C[C@@H]2C[C@@H](Oc3cnc(N4CCNCC4)nc3)CCN21` [Example 18, 5-[(4R,8S,9aS)-4-methyl-8-(2-piperazin-1-ylpyrimidin-5-yl)oxy-1,3,4,6,7,8,9,9a-octahydropyrido[1,2-a]pyrazin-2-yl]quinoline-8-carbonitrile], `C[C@@H]1CN(c2ccc(C#N)c3ncccc23)C[C@@H]2C[C@H](c3ccc(N4CCOC[C@@H](N)C4)nc3)CCN21` [Example 23, 5-[(4R,8R,9aS)-8[6-[(6S)-6-amino-1,4-oxazepan-4-yl]-3-pyridyl]-4-methyl-1,3,4,6,7,8,9,9a-octahydropyrido[1,2-a]pyrazin-2-yl]quinoline-8-carbonitrile] is 13-fold higher in IC50: 6 nM for the first, 79 nM for the second.

For `CO[C@H]1CN(c2ccc(C3CN([C@@H]4CCN5[C@@H](C4)CN(c4ccc(C#N)c6ncccc46)C[C@H]5C)C3)cc2)C[C@H]1N` [Example 32, 5-[(4R,8R,9aS)-8-[3-[4-[(3R,4S)-3-amino-4-methoxy-pyrrolidin-1-yl]phenyl]azetidin-1-yl]-4-methyl-1,3,4,6,7,8,9,9a-octahydropyrido[1,2-a]pyrazin-2-yl]quinoline-8-carbonitrile], the IC50 was 29 nM.
